Results: EP4759812A1 (Guangzhou Lupeng Pharmaceutical Co., Ltd., priority 2023, dated 2025)

Key:
Assay type in all cases: physicochemical
[1] = Stability test in pure water and buffer solution (suspension, XRPD); conditions: 25°C, stirred 24 h, solid by XRPD
Description: The suspensions were stirred at 25°C for 24 h, and filtered to obtain the solids. Samples were taken for XRPD measurement. […]

[2] = Influencing factor stability: high-humidity test; conditions: Temperature 25°C, relative humidity 92.5±5%; for Purity: HPLC, starting purity: Crystal form VI 99.32%, Amorphous form 98.80%, Crystal form XIII 99.01%; for Crystal form: XRPD
Description: (§1) The crystal form results under different conditions were identified by XRPD analysis, and the purity results under different conditions were identified by HPLC analysis.
(§2) The above samples were then taken on days 5, 10, 15, and 30, respectively. Their crystal forms were tested by adopting X-ray powder diffraction (XRPD), and the sample purities were tested by adopting HPLC. […]

[3] = Morphological comparison under polarizing light microscope; conditions: for dispersibility and flowability / agglomeration and caking: judged from polarizing light microscope images; for crystal morphology: polarizing light microscope
[4] = Dynamic vapor sorption (DVS) experiment; conditions: for Adsorption weight gain (80% RH) / Adsorption weight gain (95% RH): DVS; for Hygroscopicity: class per Chinese Pharmacopoeia 2010 guidance (25±0.2°C, 80% relative humidity)
[5] = Influencing factor stability: high-temperature test; conditions: Temperature 60°C; for Purity: HPLC, starting purity: Crystal form VI 99.32%, Amorphous form 98.80%, Crystal form XIII 99.01%; for Crystal form: XRPD
Description: as §1, §2

[6] = Influencing factor stability: light exposure test; conditions: Visible light 4500 Lux ± 500 Lux; for Crystal form: ultraviolet light 1.7 W*h/m^2 (25°C, RH 60%±5%), XRPD; for Purity: HPLC, starting purity: Crystal form VI 99.32%, Amorphous form 98.80%, Crystal form XIII 99.01%
Description: as §1, §2

[7] = ultraviolet light 1.7 W*h/m^2, 5 days
[8] = ultraviolet light 1.7 W*h/m^2, 10 days
[9] = ultraviolet light 1.7 W*h/m^2, 15 days
[10] = ultraviolet light 1.7 W*h/m^2, 30 days

| SMILES | Suspension result ([1]; Pure water) | Suspension result ([1]; pH 4.5 buffer solution) | Suspension result ([1]; pH 6.8 buffer solution) | Purity ([2]; 5 days) | Crystal form ([2]; 5 days) | Purity ([2]; 10 days) | Crystal form ([2]; 10 days) | Purity ([2]; 15 days) | Crystal form ([2]; 15 days) | Purity ([2]; 30 days) | Crystal form ([2]; 30 days) | dispersibility and flowability / agglomeration and caking [3] | crystal morphology [3] | Adsorption weight gain (80% RH) [4] | Adsorption weight gain (95% RH) [4] | Hygroscopicity [4] | Purity ([5]; 5 days) | Crystal form ([5]; 5 days) | Purity ([5]; 10 days) | Crystal form ([5]; 10 days) | also measured |
| --- | --- | --- | --- | --- | --- | --- | --- | --- | --- | --- | --- | --- | --- | --- | --- | --- | --- | --- | --- | --- | --- |
| C=CC(=O)Nc1cc(Nc2nc(-c3ccnc(N4CCn5c(cc6c5CC(C)(C)C6)C4=O)c3CO)cn(C)c2=O)ccc1N1CCN(C2CCOCC2)C[C@@H]1C [Amorphous form, (S)-N-(5-((6-(2-(7,7-dimethyl-1-oxo-1,3,4,6,7,8-hexahydro-2H-cyclopenta[4,5]pyrrolo[1,2-a]pyrazin-2-yl)-3-(hydroxymethyl)pyridin-4-yl)-4-methyl-3-oxo-3,4-dihydropyrazin-2-yl)amino)-2-(2-methyl-4-(tetrahydro-2H-pyran-4-yl)piperazin-1-yl)phenyl)acrylamide] | Transform into other crystal forms | Transform into other crystal forms | Transform into other crystal forms | 98.72% | Amorphous form | 98.50% | Amorphous form | 98.38% | Amorphous form | 98.21% | Amorphous form | significant agglomeration and caking | irregular glassy state | 4.55% | 6.76% | Hygroscopic (hygroscopic weight gain is less than 15% but not less than 2%) | 98.61% | Amorphous form | 98.44% | Amorphous form | Adsorption weight gain (80% RH) ([4]; listed as amorphous form): about 4.55%; Adsorption weight gain (95% RH) ([4]; listed as amorphous form): about 6.76%; Hygroscopicity ([4]; listed as amorphous form): hygroscopic; Purity ([5]; 15 days): 98.39%; Crystal form ([5]; 15 days): Amorphous form; Purity ([5]; 30 days): 97.88%; Crystal form ([5]; 30 days): Amorphous form; Crystal form ([6]; 5 days): Amorphous form; Crystal form ([6]; 10 days): Amorphous form; Crystal form ([6]; 15 days): Amorphous form; Crystal form ([6]; 30 days): Amorphous form; Purity [6, 7]: 98.46%; Purity [6, 8]: 97.98%; Purity [6, 9]: 97.29%; Purity [6, 10]: 96.55% |
| C=CC(=O)Nc1cc(Nc2nc(-c3ccnc(N4CCn5c(cc6c5CC(C)(C)C6)C4=O)c3CO)cn(C)c2=O)ccc1N1CCN(C2CCOCC2)C[C@@H]1C [Crystal form XIII, (S)-N-(5-((6-(2-(7,7-dimethyl-1-oxo-1,3,4,6,7,8-hexahydro-2H-cyclopenta[4,5]pyrrolo[1,2-a]pyrazin-2-yl)-3-(hydroxymethyl)pyridin-4-yl)-4-methyl-3-oxo-3,4-dihydropyrazin-2-yl)amino)-2-(2-methyl-4-(tetrahydro-2H-pyran-4-yl)piperazin-1-yl)phenyl)acrylamide] | Transform into other crystal forms | Transform into other crystal forms | Transform into other crystal forms | 98.92% | Crystal form XIII | 98.86% | Crystal form XIII | 98.81% | Crystal form XIII | 98.77% | Crystal form XIII | relatively poor flowability | fine | 6.53% | 14.45% | Hygroscopic (hygroscopic weight gain is less than 15% but not less than 2%) | 98.79% | Transform into other crystal forms | 98.54% | Transform into other crystal forms | Adsorption weight gain (80% RH) ([4]; listed as crystal form XIII): about 6.53%; Adsorption weight gain (95% RH) ([4]; listed as crystal form XIII): about 14.45%; Hygroscopicity ([4]; listed as crystal form XIII): hygroscopic; Purity ([5]; 15 days): 98.20%; Crystal form ([5]; 15 days): Transform into other crystal forms; Purity ([5]; 30 days): 97.85%; Crystal form ([5]; 30 days): Transform into other crystal forms; Crystal form ([6]; 5 days): Crystal form XIII; Crystal form ([6]; 10 days): Crystal form XIII; Crystal form ([6]; 15 days): Crystal form XIII; Crystal form ([6]; 30 days): Crystal form XIII; Purity [6, 7]: 98.65%; Purity [6, 8]: 98.32%; Purity [6, 9]: 97.76%; Purity [6, 10]: 97.15% |
| C=CC(=O)Nc1cc(Nc2nc(-c3ccnc(N4CCn5c(cc6c5CC(C)(C)C6)C4=O)c3CO)cn(C)c2=O)ccc1N1CCN(C2CCOCC2)C[C@@H]1C [Crystal form V, (S)-N-(5-((6-(2-(7,7-dimethyl-1-oxo-1,3,4,6,7,8-hexahydro-2H-cyclopenta[4,5]pyrrolo[1,2-a]pyrazin-2-yl)-3-(hydroxymethyl)pyridin-4-yl)-4-methyl-3-oxo-3,4-dihydropyrazin-2-yl)amino)-2-(2-methyl-4-(tetrahydro-2H-pyran-4-yl)piperazin-1-yl)phenyl)acrylamide] |  | Transform into other crystal forms | Transform into other crystal forms |  |  |  |  |  |  |  |  |  |  |  |  |  |  |  |  |  |  |
